# In ChEMBL document CHEMBL4014348, “Design, Multicomponent Synthesis, and Anticancer Activity of a Focused Histone Deacetylase (HDAC) Inhibitor Library with Peptoid-Based Cap Groups” (J Med Chem, 2017):
# Experiments:
# [1] = molecular target: T1, Histone deacetylase 1/2/3/6 (Homo sapiens, UniProt Q13547+O15379+Q9UBN7+Q92769); assay: Inhibition of HDAC1/2/3/6 in human A2780 cells using Boc-Lys(epsilon-Ac)-AMC as substrate preincubated for 18 hrs followed by substrate addition measured after 3 hrs by fluorescence assay; format: cell-based
# [2] = molecular target: T1, Histone deacetylase 1/2/3/6; assay: Inhibition of HDAC1/2/3/6 in human A2780cisR cells using Boc-Lys(epsilon-Ac)-AMC as substrate preincubated for 18 hrs followed by substrate addition measured after 3 hrs by fluorescence assay; format: cell-based
# [3] = molecular target: T1, Histone deacetylase 1/2/3/6; assay: Inhibition of HDAC1/2/3/6 in human Cal27 cells using Boc-Lys(epsilon-Ac)-AMC as substrate preincubated for 18 hrs followed by substrate addition measured after 3 hrs by fluorescence assay; format: cell-based
# A2780cisR = assay: Cytotoxicity against human A2780cisR cells assessed as cell survival after 72 hrs by MTT assay; format: functional, cell-based
# A2780 = assay: Cytotoxicity against human A2780 cells assessed as cell survival after 72 hrs by MTT assay; format: functional, cell-based; conditions: A2780, 72 h
# CAL-27 = assay: Cytotoxicity against human CAL27 cells assessed as cell survival after 72 hrs by MTT assay; format: functional, cell-based; conditions: CAL-27, 72 h
# [4] = molecular target: T1, Histone deacetylase 1/2/3/6; assay: Inhibition of HDAC1/2/3/6 in human Cal27CisR cells using Boc-Lys(epsilon-Ac)-AMC as substrate preincubated for 18 hrs followed by substrate addition measured after 3 hrs by fluorescence assay; format: cell-based
# [5] = Cytotoxicity against human Cal27CisR cells assessed as cell survival after 72 hrs by MTT assay; format: functional, cell-based
Structure (SMILES),IC50 [1] [µM],IC50 [2] [µM],IC50 [3] [µM],IC50 (A2780cisR) [µM],IC50 (A2780) [µM],IC50 (CAL-27) [µM],IC50 [4] [µM],IC50 [5] [µM]
CN(C)c1ccc(C(=O)N(CCCCCC(=O)NO)C(C)(C)C(=O)NC2CCCCC2)cc1,24.5,30.8,18.2,107,68.5,47.7,28.8,46.1
CN(C)c1ccc(C(=O)N(CCCCCC(=O)NO)CC(=O)NC2CCCCC2)cc1,1.42,1.9,1.4,3.31,1.54,2.97,1.52,35.5
Cc1ccc(NC(=O)CN(CCCCCC(=O)NO)C(=O)c2cc(C)cc(C)c2)cc1,1.3,0.81,0.95,2.18,1.27,1.67,0.8,2.11
Cc1ccc(C(C(=O)NC2CCCCC2)N(CCCCCC(=O)NO)C(=O)c2ccccc2)cc1 (centres undefined),2.81,3.63,2.94,4.29,2.09,4.52,3.22,19
CN(C)c1ccc(C(=O)N(CCCCCC(=O)NO)CC(=O)NC(C)(C)C)cc1,2.06,2.49,1.78,5.18,1.03,4.04,1.97,2.18
O=C(CCCCCN(C(=O)c1ccccc1)C(C(=O)NC1CCCCC1)c1ccccc1)NO (centres undefined),3.14,2.92,2.06,5.18,3.87,6.36,2.65,5.28
O=C(CCCCCN(CC(=O)NC1CCCCC1)C(=O)c1cccc2ccccc12)NO,0.96,1.29,0.75,4.12,0.26,2.4,0.6,5.6
CC(C)CNC(=O)CN(CCCCCC(=O)NO)C(=O)c1ccc(N(C)C)cc1,1.09,0.82,0.87,3.19,1.9,1.87,0.8,2.11
CC(C)(C)NC(=O)CN(CCCCCC(=O)NO)C(=O)c1ccccc1,8.98,9.51,6.85,42.4,20.7,16.7,4.59,19.5
CC(C)(C(=O)NC1CCCCC1)N(CCCCCC(=O)NO)C(=O)c1ccccc1,37.9,44.9,26.2,281,295,66.9,43,4.07
CC(C)(C)NC(=O)C(C)(C)N(CCCCCC(=O)NO)C(=O)c1ccccc1,127,102,92.5,579,207,75.8,132,13.8
O=C(CCCCCN(C(=O)c1ccccc1)C1(C(=O)NC2CCCCC2)CCCCC1)NO,13.4,10.1,14.3,50.5,42.6,44.1,10.2,77.5
O=C(CCCCCN(CC(=O)NC1CCCCC1)C(=O)c1ccccc1)NO,1.66,1.13,1.34,8.21,3.46,3.8,1.08,10.3
